Source: the supplement of paper PMC5579334
± gives the standard deviation of the averaged measurements.

Assays:
ST8814 [1] = assay: drug sensitivity score (DSS, CellTiter-Glo viability, 72 h) (DSS (dimensionless)); higher = more sensitive; extreme values may be limits of the assay
How it was run: (§1)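 MPNST cell lines and primary human Schwann cells were seeded at 750–1000 cells per well into 384-well plates preprinted with each compound at five concentrations in 10-fold steps, then incubated 72 h at 37 °C, 5% CO2. CellTiter-Glo ATP luminescence gave viability, scaled between vehicle and positive-control wells, with duplicates averaged where present. Curves were fitted with a four-parameter logistic model. Percent inhibition refers to the top concentration, while drug sensitivity score and relative IC50, censored at the top concentration, come from these fits.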

HS-PSS [2] = assay: as above
How it was run: as §1

STS26T [3] = assay: as above
How it was run: as §1

S462 [4] = assay: as above
How it was run: as §1

[5] = test system: HSC2 (primary human Schwann cells); assay: as above
How it was run: as §1

YST-1 [6] = assay: as above
How it was run: as §1

S1507-2 [7] = assay: as above
How it was run: as §1

[8] = test system: HSC1 (primary human Schwann cells); assay: as above
How it was run: as §1

HS-Sch-2 [9] = assay: as above
How it was run: as §1

ST8814 [10] = assay: drug sensitivity score (DSS, CellTox-Green cytotoxicity, 72 h) (DSS (dimensionless)); higher = more cytotoxic; extreme values may be limits of the assay
How it was run: (§2)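 For 72 h at 37 °C, MPNST cell lines and primary human Schwann cells were exposed in 384-well plates to five 10-fold compound dilutions. CellTox-Green, added before seeding at a final 1:1000 dilution, gave fluorescence from DNA released by disrupted cells. Signals were scaled to vehicle and positive-control wells, cultures failing plate quality control were left out, and four-parameter logistic fits were applied. Relative IC50 and drug sensitivity score were derived from the fits, with IC50 censored at the top concentration.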

HS-PSS [11] = assay: as above
How it was run: as §2

STS26T [12] = assay: as above
How it was run: as §2

[13] = test system: HSC2 (primary human Schwann cells); assay: as above
How it was run: as §2

S1507-2 [14] = assay: as above
How it was run: as §2

[15] = test system: HSC1 (primary human Schwann cells); assay: as above
How it was run: as §2

ST8814 [16] = assay: % inhibition of CellTiter-Glo viability at highest tested concentration (72 h), relative to DMSO and benzethonium chloride controls; higher = more inhibition
How it was run: as §1

HS-PSS [17] = assay: as above
How it was run: as §1

STS26T [18] = assay: as above
How it was run: as §1

S462 [19] = assay: as above
How it was run: as §1

[20] = test system: HSC2 (primary human Schwann cells); assay: as above
How it was run: as §1

YST-1 [21] = assay: as above
How it was run: as §1

S1507-2 [22] = assay: as above
How it was run: as §1

[23] = test system: HSC1 (primary human Schwann cells); assay: as above
How it was run: as §1

HS-Sch-2 [24] = assay: as above
How it was run: as §1

| SMILES | drug sensitivity score (ST8814 [1]) | drug sensitivity score (HS-PSS [2]) | drug sensitivity score (STS26T [3]) | drug sensitivity score (S462 [4]) | drug sensitivity score [5] | drug sensitivity score (YST-1 [6]) | drug sensitivity score (S1507-2 [7]) | drug sensitivity score [8] | drug sensitivity score (HS-Sch-2 [9]) | drug sensitivity score (ST8814 [10]) | drug sensitivity score (HS-PSS [11]) | drug sensitivity score (STS26T [12]) | drug sensitivity score [13] | drug sensitivity score (S1507-2 [14]) | drug sensitivity score [15] | % inhibition (ST8814 [16]) [%] | % inhibition (HS-PSS [17]) [%] | % inhibition (STS26T [18]) [%] | % inhibition (S462 [19]) [%] | % inhibition [20] [%] | % inhibition (YST-1 [21]) [%] | % inhibition (S1507-2 [22]) [%] | % inhibition [23] [%] | % inhibition (HS-Sch-2 [24]) [%] |
| --- | --- | --- | --- | --- | --- | --- | --- | --- | --- | --- | --- | --- | --- | --- | --- | --- | --- | --- | --- | --- | --- | --- | --- | --- |
| CCC/C=C/C=C/C(=O)O[C@H]1/C(=C/C(=O)OC)C[C@H]2C[C@H]([C@@H](C)O)OC(=O)C[C@H](O)C[C@@H]3C[C@H](OC(C)=O)C(C)(C)[C@](O)(C[C@@H]4C/C(=C/C(=O)OC)C[C@H](/C=C/C(C)(C)[C@]1(O)O2)O4)O3 [Bryostatin 1] (max concentration tested 100 nM) | 0 | 1.21 | 2.82 | 1.37 ± 0.77 | 0 | 0 | 0.762 ± 1.1 | 0 | 7.06 | 0 | 0 | 0 | 0 | 2.29 ± 3.2 | 0 | -11.8 | 11.2 | 20.4 | 24.9 ± 3.1 | -14.2 | 7.32 | 21.1 ± 2.6 | -11.5 | 19.4 |
| O=NN(CCCl)C(=O)NCCCl [Carmustine] (max concentration tested 10000 nM) | 0 | 0.02 | 0 | 0 | 0 | 0 | 0 | 0 | 0 | 0 | 0 | 0 | 0 | 0.439 ± 0.62 | 0 | -3.77 | 10.6 | -1.28 | -7.97 ± 1.3 | -7.14 | 1.73 | -5.49 ± 3.8 | 0.41 | 2.86 |
| COc1cc2nccc(Oc3ccc(NC(=O)Nc4cc(C)on4)c(Cl)c3)c2cc1OC [Tivozanib] (max concentration tested 10000 nM) | 0 | 2 | 3.66 | 6.863 ± 0.013 | 6.35 | 4.22 | 10.5 ± 0.46 | 5.86 | 2.18 | 1.94 | 0 | 1.82 | 0 | 0.631 ± 0.89 | 0.17 | 36.2 | 46.2 | 45.5 | 58.9 ± 1.3 | 73.9 | 58.2 | 42.795 ± 0.006 | 67.7 | 51.3 |
| Nc1ncnc2c1nc(N)n2[C@@H]1O[C@H](CO)[C@@H](O)[C@H]1O [8-amino-adenosine] (max concentration tested 50000 nM) | 19.6 | 17.9 | 19.9 | 20.2 ± 0.77 | 15.6 | 22.8 | 21.3 ± 0.37 | 18.1 | 19.3 | 14.7 | 3.6 | 16.9 | 4.74 | 12.1 ± 6.4 | 4.02 | 98.4 | 101 | 100 | 99.7 ± 0.63 | 96.7 | 102 | 99.405 ± 0.063 | 98 | 102 |
| C/C(=C\c1csc(C)n1)[C@@H]1C[C@@H]2O[C@]2(C)CCC[C@H](C)[C@H](O)[C@@H](C)C(=O)C(C)(C)[C@@H](O)CC(=O)N1 [Ixabepilone] (max concentration tested 1000 nM) | 3.83 | 1.51 | 4.72 | 4.444 ± 0.0091 | 4.2 | 3.86 | 3.26 ± 0.04 | 7.72 | 5.18 | 4.33 | 0 | 5.61 | 3.03 | 3.15 ± 0.92 | 4.19 | 79.1 | 39.3 | 92.9 | 84.3 ± 4 | 62.1 | 79 | 62.7 ± 3.3 | 69.7 | 91.8 |
| CC[C@@H]1C(=O)N(C)c2cnc(Nc3ccc(C(=O)NC4CCN(C)CC4)cc3OC)nc2N1C1CCCC1 [BI 2536] (max concentration tested 1000 nM) | 22.1 | 15 | 29.6 | 28.42 ± 0.2 | 17.4 | 20.5 | 19.5 ± 0.21 | 13.3 | 24.5 | 19.5 | 0.25 | 32.3 | 20.1 | 15.6 ± 0.4 | 11.3 | 84.1 | 61 | 75.9 | 101.6 ± 0.24 | 79.4 | 54.1 | 86.7 ± 3 | 62.9 | 66.8 |
